Data taken from PMC10669340, “Bioactive Compounds from an Endophytic Pezicula sp. Showing Antagonistic Effects against the Ash Dieback Pathogen” (Biomolecules, 2023).
≈ marks a conversion by molar mass, not a printed value. Like-named read-outs stand apart in the source and are kept apart here.

Assays:
[1] = tested on: Escherichia coli DSM 1116; assay: Antimicrobial serial dilution assay (MIC); format: cell-based; settings: n.i.: no inhibition
Description: (§1) The antimicrobial activity (minimum inhibitory concentration, MIC) of the compounds was determined against Acinetobacter baumannii DSM 30008, Bacillus subtilis DSM 10, Chromobacterium violaceum DSM 30191, Escherichia coli DSM 1116, Mycobacterium smegmatis ATCC 700084, Pseudomonas aeruginosa PA14, Staphylococcus aureus DSM 346, Candida albicans DSM1665, Mucor hiemalis DSM 2656, Pichia anomala DSM 6766, Rhodotorula glutinis DSM 10134 and Schizosaccharomyces pombe DSM 70572 in a serial dilution assay as previously described.

[2] = tested on: Schizosaccharomyces pombe DSM 70572; assay: Antimicrobial serial dilution assay (MIC); format: cell-based; settings: Schizosaccharomyces pombe DSM 70572; n.i.: no inhibition
Description: as §1

[3] = tested on: Rhodotorula glutinis DSM 10134; assay: Antimicrobial serial dilution assay (MIC); format: cell-based; settings: Rhodotorula glutinis DSM 10134, n.i.: no inhibition
Description: as §1

Pichia anomala DSM 6766 = assay: Antimicrobial serial dilution assay (MIC); format: cell-based; settings: Pichia anomala DSM 6766; n.i.: no inhibition
Description: as §1

Candida albicans DSM1665 = assay: Antimicrobial serial dilution assay (MIC); format: cell-based; settings: n.i.: no inhibition
Description: as §1

[4] = tested on: Pseudomonas aeruginosa PA14; assay: Antimicrobial serial dilution assay (MIC); format: cell-based; settings: n.i.: no inhibition
Description: as §1

Bacillus subtilis DSM 10 = assay: Antimicrobial serial dilution assay (MIC); format: cell-based; settings: Bacillus subtilis DSM 10, n.i.: no inhibition; for MIC: DSM10, read-out: Minimum inhibitory concentration (MIC)
Description: as §1

[5] = tested on: Acinetobacter baumannii DSM 30008; assay: Antimicrobial serial dilution assay (MIC); format: cell-based; settings: n.i.: no inhibition
Description: as §1

Mucor hiemalis DSM 2656 = assay: Antimicrobial serial dilution assay (MIC); format: cell-based; settings: Mucor hiemalis DSM 2656, n.i.: no inhibition; for MIC: DSM2656, read-out: Minimum inhibitory concentration (MIC)
Description: as §1

[6] = tested on: Mycobacterium smegmatis ATCC 700084; assay: Antimicrobial serial dilution assay (MIC); format: cell-based; settings: Mycobacterium smegmatis ATCC 700084; n.i.: no inhibition
Description: as §1

[7] = tested on: Staphylococcus aureus DSM 346; assay: Antimicrobial serial dilution assay (MIC); format: cell-based; settings: Staphylococcus aureus DSM 346, n.i.: no inhibition; for MIC: DSM346, read-out: Minimum inhibitory concentration (MIC)
Description: as §1

[8] = tested on: Chromobacterium violaceum DSM 30191; assay: Antimicrobial serial dilution assay (MIC); format: cell-based; settings: n.i.: no inhibition
Description: as §1

MTT cytotoxicity assay = format: cell-based; settings: read-out: Cytotoxic activity (IC50)
Description: (§2) The in vitro cytotoxicity assay was performed using the MTT (3-(4,5-dimethylthiayol-2-yl)-2,5-diphenyltetrazolium bromide) test in 96-well microtiter plates as previously described.

[9] = tested on: panel of bacteria and fungi; assay: Antimicrobial serial dilution assay, whole panel (summary statements); format: cell-based
Description: as §1

[10] = tested on: panel of mammalian cell lines; assay: MTT cytotoxicity assay, panel (summary statements); format: cell-based; settings: 4–6 only KB3.1 and L929
Description: as §2

[11] = tested on: H. fraxineus (isolate RH02-T6-B4-2); assay: Agar disc diffusion assay; format: cell-based, Hymenoscyphus fraxineus; settings: 6 mm disc, 7 days, 21 °C, n.i.: no inhibition
Description: The antifungal activity of the isolated compounds against H. fraxineus was assessed by the disc diffusion method using 9 cm diameter petri dishes as previously described […] Three sterile filter paper discs per plate were gently placed on dried potato–dextrose agar. The fungicide nystatin was applied as the positive control (20 and 50 µg/paper disc) and methanol as the negative control (10 µL/paper disc). The test plates were incubated at 21 °C for 7 days, the inhibition diameters were measured, and the activity was evaluated compared to nystatin.
Figure S44: Agar disc (6 mm diam.) diffusion assay of compound CJ-17,572 (1) against H. fraxineus RH02-T6-B4-2, grown in 9-cm petri dishes on agar-based PD
medium with H. fraxineus, N - positive control nystatin, M - negative control methanol, CJ – 1.
Table S1. Antifungal activity of the compounds 1-6. n.i.: no inhibition, n.t.: not tested.
Compounds Amount ( µg/paper disc)
Peziculastatin n.t. n.i. 8 mm
Mycorrhizin A 19 mm 31 mm n.t.
Cryptosporioptide A n.t. n.i. n.i.
Cryptosporioptide B n.t. n.i. 8 mm
Cryptosporioptide C n.t. n.i. n.i.
Nystatin 21 mm 24 mm n.t.

[12] = tested on: Candida albicans DSM 11225 biofilm; assay: Biofilm assay, inhibition of biofilm formation; format: cell-based; settings: (/) no activity
Description: The stock of fungal pathogen Candida albicans DSM 11225 from −20 °C was cultured in 25 mL YPD (Yeast extract Peptone Dextrose; dextrose 20 g/L, peptone 20 g/L, yeast extract 10 g/L) medium in a 250 mL flask at 30 °C with shaking 100 rpm for 18 h. Turbidity of the broth was measured and diluted to match the turbidity of a 0.05 McFarland standard in RPMI 1640 medium (Gibco, New York, NY, USA, Thermo Fisher Scientific). Afterwards, 150 μL of the fungal dispersion was added into each well of a 96-well microtiter plate (Falcon no. 351172, Thermo Fisher Scientific) and further incubated for 90 min. The supernatant was removed, and the plate was washed once by using PBS buffer. Compounds were serially diluted in 150 μL in fresh medium to concentrations of 250–2 μg/mL. Staining and analysis were conducted as previously described. Methanol (2.5%) and farnesol (250–2 μg/mL) were used as solvent and positive controls. Error bars indicate SD with duplicates in two biological repeats.

[13] = tested on: Staphylococcus aureus DSM 1104 preformed biofilm; assay: Biofilm assay, dispersal of preformed biofilm; format: cell-based; parameters: Antibiofilm activity, preformed S. aureus: unit not given here; settings: (/) no activity
Description: Staphylococcus aureus DSM 1104 from −20 °C stock was cultured in 25 mL CASO (Casein–Peptone Soymeal–Peptone; peptone from casein 15 g/L, peptone from soy flour 5 g/L, NaCl 5 g/L, pH 7.3) medium at 37 °C at 100 rpm in 250 mL for 20 h. The precultured suspension of S. aureus was adjusted so that its OD600 matched the turbidity of a 0.001 McFarland standard. S. aureus was incubated in 96-well tissue microtiter plates (TPP tissue culture ref.no 92196, Switzerland) for 24 h at 150 rpm in […] CASO medium with 4% glucose broth. The supernatant was removed from the wells and 150 μL of the respective media (fresh) was added to the wells, together with the serially diluted compounds (250–2 μg/mL). The plates were incubated for a further 24 h at 37 °C. Staining of the biofilms was carried out as described previously. Standard deviation (SD) of two repeats with duplicates each were 10% or less. Methanol (2.5%) and microporenic acid A (250–2 μg/mL) were used as solvent and positive controls. Error bars indicate SD with duplicates in two biological repeats.

[14] = tested on: Fraxineus excelsior leaves; assay: Phytotoxicity leaf puncture assay; settings: 1 mg/mL in MeOH, 20 µL on punctured leaves, evaluated after 3 days
Description: The phytotoxicity of the compounds 1, 3 and 4 was assessed using the leaf puncture assay as described previously. The other compounds could not be evaluated because of the limited quantity.
For this assay, similar leaves of the same Fraxineus excelsior plant were chosen onto which the compounds were applied. The pure compounds were dissolved at 1 mg/mL in MeOH. Then, 20 µL of test samples were applied to the adaxial sides of leaves that had previously been needle punctured. A total of 20 µL of MeOH in distilled water (4%) was applied on the leaves as the negative control and 1 mg/mL macrocidin A [23] as the positive control. Each treatment was repeated three times and then the leaves were placed on moistened paper filters in petri dishes (diameter 9 cm) to prevent the droplets from drying. The experiment was run in duplicate. Leaves were evaluated for the symptoms after 3 days.

[15] = human, A431 squamous cell carcinoma cells
[16] = human, A549 lung carcinoma cells
[17] = human, KB3.1 endocervical adenocarcinoma cells, n.c.: no cytotoxicity
[18] = human, MCF-7 breast adenocarcinoma cells
[19] = mouse, L929 fibroblast cells, n.c.: no cytotoxicity

| SMILES | Minimum inhibitory concentration (MIC) [1] | Minimum inhibitory concentration (MIC) [2] | Minimum inhibitory concentration (MIC) [3] | Minimum inhibitory concentration (MIC) (Pichia anomala DSM 6766) | Minimum inhibitory concentration (MIC) (Candida albicans DSM1665) | Minimum inhibitory concentration (MIC) [4] | MIC (Bacillus subtilis DSM 10) | Minimum inhibitory concentration (MIC) [5] | MIC (Mucor hiemalis DSM 2656) | Minimum inhibitory concentration (MIC) [6] | MIC [7] | Minimum inhibitory concentration (MIC) [8] | antimicrobial activity against the tested microorganisms (in words) [9] | cytotoxicity against the tested cell lines (in words) [10] | Minimum inhibitory concentration (MIC) (Bacillus subtilis DSM 10) | Minimum inhibitory concentration (MIC) (Mucor hiemalis DSM 2656) | Minimum inhibitory concentration (MIC) [7] | IC50 (MTT cytotoxicity assay; [15]) | IC50 (MTT cytotoxicity assay; [16]) | IC50 (MTT cytotoxicity assay; [17]) | further results |
| --- | --- | --- | --- | --- | --- | --- | --- | --- | --- | --- | --- | --- | --- | --- | --- | --- | --- | --- | --- | --- | --- |
| COC1=C(C(=O)[C@@]2(C)[C@@H](C)C=C[C@H]3C[C@@H](C)CC[C@@H]32)C(=O)N(C)[C@H]1[C@@H](C)O [Compound 7, 4′-methyl-CJ-17,572] | n.i. | n.i. | n.i. | n.i. | n.i. | n.i. | 8.3 µg/mL (≈ 22.1 µM) | n.i. | 66.6 µg/mL (≈ 177 µM) | n.i. | 33.3 µg/mL (≈ 88.7 µM) | n.i. | weak antimicrobial activity | active against all the tested cell lines |  |  |  |  |  |  | IC50 (MTT cytotoxicity assay; human, A431): 24 µM; IC50 (MTT cytotoxicity assay; human, A549): 10 µM; IC50 (MTT cytotoxicity assay; human, KB3.1, n.c.: no cytotoxicity): 6.4 µM; IC50 (MTT cytotoxicity assay; human, MCF-7): 9.6 µM; IC50 (MTT cytotoxicity assay; human, PC-3): 9.1 µM; IC50 (MTT cytotoxicity assay; human, SKOV-3): 14 µM; IC50 (MTT cytotoxicity assay; mouse, L929, n.c.: no cytotoxicity): 32 µM |
| COC1=C(C(=O)[C@@]2(C)[C@@H](C)C=C[C@H]3C[C@@H](C)CC[C@@H]32)C(=O)[C@H]([C@@H](C)O)N1C [Compound 8, 2′-methyl-CJ-17,572] | n.i. | n.i. | n.i. | n.i. | n.i. | n.i. |  | n.i. |  | n.i. |  | n.i. | did not show any activity | active against all the tested cell lines | n.i. | n.i. | n.i. | 20 µM | 35 µM | 15 µM | IC50 (MTT cytotoxicity assay; [18]): 1.8 µM; IC50 (MTT cytotoxicity assay; human, PC-3 prostate cancer cells): 18 µM; IC50 (MTT cytotoxicity assay; human, SKOV-3 ovarian carcinoma cells): 21 µM; IC50 (MTT cytotoxicity assay; [19]): 43 µM |
| CCCCCCC(C)/C=C/C=C/C=C/C(=O)N[C@H](C(=O)O)[C@H](O)c1ccccc1O (relative stereo) [Compound 2, peziculastatin] | n.i. | n.i. |  | n.i. | n.i. | n.i. | 33.3 µg/mL (≈ 80.1 µM) | n.i. | 33.3 µg/mL (≈ 80.1 µM) | n.i. | 16.6 µg/mL (≈ 39.9 µM) | n.i. | moderate to weak antifungal activity |  |  |  |  | 53 µM | 41 µM | 17 µM | MIC ([3]; DSM10134, read-out: Minimum inhibitory concentration (MIC)): 33.3 µg/mL (≈ 80.1 µM); IC50 (MTT cytotoxicity assay; [18]): 11 µM; IC50 (MTT cytotoxicity assay; [19]): 53 µM; Antifungal activity, inhibition diameter ([11]; 50 µg/paper disc): n.i.; Antifungal activity, inhibition diameter ([11]; 100 µg/paper disc): 8 mm |
| CC12Oc3ccc(-c4ccc5c(c4O)C(=O)C4=C(O)C6OC6(C)C(OC(=O)CC(=O)O)C4(C)O5)c(O)c3C(=O)C1=C(O)C1OC1(C)C2OC(=O)CC(=O)O (stereo not drawn) [Compound 4, Cryptosporioptide A] | n.i. | n.i. | n.i. | n.i. | n.i. | n.i. |  | n.i. |  | n.i. |  | n.i. |  |  | n.i. | n.i. | n.i. |  |  |  | Antifungal activity, inhibition diameter ([11]; 50 µg/paper disc): n.i.; Antifungal activity, inhibition diameter ([11]; 100 µg/paper disc): n.i.; Antibiofilm activity, C. albicans ([12]; 31.3 µg/mL): 39; Antibiofilm activity, C. albicans ([12]; 62.5 µg/mL): 71; Antibiofilm activity, C. albicans ([12]; 125 µg/mL): 71; Antibiofilm activity, C. albicans ([12]; 250 µg/mL): 81; Antibiofilm activity, preformed S. aureus ([13]; 62.5 µg/mL): 70; Antibiofilm activity, preformed S. aureus ([13]; 125 µg/mL): 73; Antibiofilm activity, preformed S. aureus ([13]; 250 µg/mL): 80; phytotoxic activity, leaf puncture assay [14]: brownish lesions |
